Test results from publication PMC3635066 (Journal of medicinal chemistry, 2012).

Assays:
recombinant CpIMPDH = biological target: T1, recombinant CpIMPDH (Cryptosporidium parvum, UniProt Q8T6T2); assay: biochemical; type: biochemical; settings: for increase in potency: relative to compound 1
T1 sequence (Q8T6T2 1-400): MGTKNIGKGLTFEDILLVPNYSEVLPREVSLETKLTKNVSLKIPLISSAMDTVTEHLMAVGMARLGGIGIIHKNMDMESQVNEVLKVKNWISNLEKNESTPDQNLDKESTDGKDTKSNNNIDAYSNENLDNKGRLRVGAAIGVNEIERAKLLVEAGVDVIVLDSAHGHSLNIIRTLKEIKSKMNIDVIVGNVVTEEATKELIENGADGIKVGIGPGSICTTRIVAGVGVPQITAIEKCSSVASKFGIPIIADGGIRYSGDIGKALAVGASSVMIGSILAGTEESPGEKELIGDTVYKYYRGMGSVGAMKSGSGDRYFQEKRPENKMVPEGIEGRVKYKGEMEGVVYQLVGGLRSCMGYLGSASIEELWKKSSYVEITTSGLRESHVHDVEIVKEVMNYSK

[1] = Mouse liver microsomal stability; type: in vitro ADME

| CpIMPDH inhibitory activity (in words) (recombinant CpIMPDH) | Compound | other results |
| --- | --- | --- |
| complete loss of inhibitory activity | CC(C)c1cccc(C(C)(C)NC(=O)Nc2ccc3ccccc3c2)c1 [Compound 11, 1-(2-(3-Isopropylphenyl)propan-2-yl)-3-(naphthalen-2-yl)urea] |  |
| complete loss of inhibitory activity | CC(C)(NC(=O)Nc1ccc2[nH]c(=O)[nH]c2c1)c1ccccc1 [Compound 38, 1-(2-Oxo-2,3-dihydro-1H-benzo[d]imidazol-5-yl)-3-(2-phenylpropan 2 yl)urea] |  |
| complete loss of inhibitory activity | CC(C)(NC(=O)Nc1ccc(Cl)cc1)c1ccc(-c2ccccc2)cc1 [Compound 36b, 1-(2-([1,1′-Biphenyl]-4-yl)propan-2-yl)-3-(4-chlorophenyl)urea] |  |
| complete loss of activity | CC(=O)c1cccc(CNC(=O)Nc2ccc(Cl)cc2)c1 [Compound 23, 1-(3-Acetylbenzyl)-3-(4-chlorophenyl) urea] |  |

Further lines, the compound ahead of its results:

| Compound | CpIMPDH inhibitory activity (in words) (recombinant CpIMPDH) | other results |
| --- | --- | --- |
| C=C(C)c1cccc(C(C)(C)NC(=O)Nc2ccc(Br)cc2)c1 [Compound 5c, 1-(4-Bromophenyl)-3-(2-(3-(prop-1-en-2-yl)phenyl)propan-2-yl)urea] |  | increase in potency (recombinant CpIMPDH): 32 fold |
| CC(C)(NC(=O)Nc1ccc(Cl)c(C(N)=O)c1)c1cccc(-c2ccccc2)c1 [Compound 36a, 5-(3-(2-([1, 1′-biphenyl]-3-yl)propan-2-yl)ureido)-2-chlorobenzamide] | retained potent activity |  |
| CO/N=C(\C)c1cccc(C(C)(C)NC(=O)Nc2ccc(Cl)c(C(F)(F)F)c2)c1 [Compound 8a, (E)-1-(4-Chloro-3-(trifluoromethyl)phenyl)-3-(2-(3-(1-(methoxyimino)ethyl)phenyl)propan-2-yl)urea] |  | mouse liver microsomal stability (in words) [1]: less stable |
| C/C(=N\OCCN)c1cccc(C(C)(C)NC(=O)Nc2ccc(Cl)c([N+](=O)[O-])c2)c1 [Compound 9, (E)-1-(2-(3-(1-((2-aminoethoxy)imino)ethyl)phenyl)propan-2-yl)-3 (4-chloro-3-nitrophenyl)urea] |  | mouse liver microsomal stability (in words) [1]: excellent mouse liver microsomal stability |
| C=C(C)c1cccc(C(C)(C)NC(=O)Nc2ccc(Cl)cc2)c1 [Compound 5b, 1-(4-chlorophenyl)-3-(2-(3-(prop-1-en-2-yl)phenyl)propan-2-yl)urea] |  | increase in potency (recombinant CpIMPDH): 16 fold |
| C=C(C)c1cccc(C(C)(C)NC(=O)Nc2ccc(C(C)(C)C)cc2)c1 [Compound 5g, 1-(4-(tert-Butyl)phenyl)-3-(2-(3-(prop-1-en-2-yl)phenyl)propan-2-yl)urea] | lacking activity |  |
| CC(=O)c1cccc(C(C)(C)OC(=O)Nc2ccc(Cl)cc2)c1 [Compound 28, 2-(3-Acetylphenyl) propan-2-yl (4-chlorophenyl)carbamate] |  | reduction in activity (recombinant CpIMPDH; relative to 6a): 2 fold |
| CC(O)c1cccc(C(C)(C)NC(=O)Nc2ccc(Cl)cc2)c1 (stereo not shown) [Compound 10, 1-(4-chlorophenyl)-3-(2-(3-(1-hydroxyethyl)phenyl)propan-2-yl)urea] | moderate activity |  |
| CC(=O)c1cccc(C(C)(C)NC(=O)Nc2ccc(Cl)c(C(N)=O)c2)c1 [Compound 6c, 5-(3-(2-(3-acetylphenyl)propan-2-yl)ureido)-2-chlorobenzamide] |  | mouse liver microsomal stability (in words) [1]: very resistant to oxidative degradation in microsomes |
| C/C(=N\O)c1cccc(C(C)(C)NC(=O)Nc2ccc(Cl)c(C(N)=O)c2)c1 [Compound 7c, (E) 2 chloro 5-(3-(2-(3-(1-(hydroxyimino)ethyl)phenyl)propan-2-yl)ureido)benzamide] |  | IC50 (recombinant CpIMPDH): ≤ 1 nM |
| C=C(C)c1cccc(C(C)(C)NC(=O)Nc2ccccc2Cl)c1 [Compound 5e, 1-(2-Chlorophenyl)-3-(2-(3-(prop-1-en-2-yl)phenyl)propan-2-yl)urea] | completely inactive |  |
| C=C(C)c1cccc(C(C)(C)NC(=O)Nc2cccc(Cl)c2)c1 [Compound 5d, 1-(3-Chlorophenyl)-3-(2-(3-(prop-1-en-2-yl)phenyl)propan-2-yl)urea] |  | loss of activity (recombinant CpIMPDH; relative to 5b): 3 fold |
